Test results: patent EP4497440A1, “USE OF 7-TRIFLUOROMETHYL-7ALPHA,25-DIHYDROXYCHOLESTEROL IN THE TREATMENT AND MODULATION OF AUTOIMMUNE AND INFLAMMATORY DISEASES OF THE NERVOUS SYSTEM AND NEURODEGENERATIVE DISEASES” (Gdanski Uniwersytet Medyczny, priority 2023, dated 2025)
Values joined by “and” are separate entries in the source; they are usually repeats but may differ in a detail not shown here. Identical values can stand only once. “Also recorded” adds a separate entry of the source.

Columns and labels:
[1] = system: mice in the cuprizone model; test: Cuprizone model: luxol fast blue staining, lipoprotein (myelin) density in the corpus callosum; type: in vivo; settings: 20 mg/kg subcutaneously once a day for 2 weeks after 9 weeks of cuprizone (group #5), compared to vehicle group #3
Excerpt: Measurement of lipoprotein density in myelin sheaths, taken on sections of brains of the mice in the cuprizone model. The mice in the cuprizone model subject were divided into 6 groups: • #1. control group: regular cuprizone-free chow for 9 weeks. The mice were euthanised after 9 weeks and tissue samples were taken for analysis. In these mice no removal of myelin sheaths occurred. • #2. control group with cuprizone: chow containing cuprizone for 9 weeks. The mice were euthanised after 9 weeks and tissue samples were taken for analysis. In the mice fed with chow containing cuprizone myelin sheaths were removed. • #3. vehicle control group - the mice were fed with chow containing cuprizone for 9 weeks, and then with regular chow without cuprizone for 2 weeks. Over the 2 weeks on regular show the mice in the vehicle control group were first injected with vehicle #1: DMSO, intraperitoneally, 150 µl once a day, and then with vehicle #2: canola oil, subcutaneously, 150 µl once a day. • #4. barbadin control group - the mice were fed with chow containing cuprizone for 9 weeks and then with regular chow without cuprizone for 2 weeks. Over the 2 weeks on regular chow the mice in this group were injected with barbadin 0.3 mg/kg, intraperitoneally, 150 µl once a day and then with vehicle #2: canola oil, subcutaneously, 150 µl once a day. • #5. oxysterol experimental group - the mice were fed with chow containing cuprizone for 9 weeks and then with regular chow without cuprizone for 2 weeks. […] Brain sections sampled from the mice were histochemically stained with luxol fast blue (Abcam, cat. No. Ab 150675), and the intensity (density) of the lipid staining in the corpus callosum was measured using the ImageJ software (ImageJ (nih.gov)). […]

[2] = in vivo, from reference [6]; cited from earlier work
white blood cells = test: Cuprizone model: blood morphology (white blood cell counts); type: in vivo, mice
Method: (§1) C (Fig 7) or #3 (Fig 8 and 9) vehicle control group - the mice were fed with chow containing cuprizone for 9 weeks, and then with regular chow without cuprizone for another 2 weeks. Over the 2 weeks on regular chow the mice in the vehicle control group were first injected vehicle #1: DMSO (intraperitoneal injection), 150 µl once a day, and then vehicle #2: canola oil, subcutaneously, 150 µl once a day.
#4 (Fig 8 and 9) barbadin control group - the mice were fed with chow containing cuprizone for 9 weeks, and then with regular chow without cuprizone for another 2 weeks. Over the 2 weeks on regular chow the mice in the group were injected barbadin 0.3 mg/kg, intraperitoneally, 150 µl once a day, and then vehicle #2: canola oil, subcutaneously, 150 µl once a day.
E (Fig 7) or #5 experimental group with oxysterol CF3-7α,25OHC - the mice were fed with chow containing cuprizone for 9 weeks, and then with regular chow without cuprizone for another 2 weeks. Over the 2 weeks on regular chow the mice in the group were injected vehicle #1: DMSO, intraperitoneally, 150 µl once a day, and CF3-7α,25OHC, dose: 20 mg/kg, subcutaneously, 150 µl once a day.
#6 (Fig 8 and 9) experimental group with barbadin + oxysterol CF3-7α,25OHC - the mice were fed with chow containing cuprizone for 9 weeks, and then with regular chow without cuprizone for another 2 weeks. Over the 2 weeks on regular chow the mice in the group were injected barbadin, 0.3 mg/kg, intraperitoneally, 150 µl once a day, and then one hour following the barbadin injection they were injected CF3-7α,25OHC, dose: 20 mg/kg, subcutaneously, 150 µl once a day.
The blood from the heart was sampled after the mice had been euthanised, and blood morphology test was performed using a standard diagnostic analyser. […] The lymphocyte count in peripheral blood of the mice which had been injected with CF3-7α,25OHC was lower by 50% compared to the control group of mice injected with vehicles (gr. #3 or C). The specific action of CF3-7α,25OHC leading to reduction of the lymphocyte count in blood finds confirmation in the results obtained for the mice of groups #4 (or D) and #6 (or F). Compared to the control group, the lymphocyte count in blood in the group of mice injected with barbadin (#4 or D) was lower only by 21%, and in the group of mice injected with barbadin + CF3-7α,25OHC by 7%. Following interaction with CF3-7α,25OHC, barbadin blocks internalisation of the EBI2 receptor from the cell membrane. The absence of any significant effect related to the treatment with barbadin or barbadin + CF3-7α,25OHC indicates a specific action of CF3-7α,25OHC on the EBI2 receptor and the consequential effects of that action, namely reduction of the count of circulating lymphocytes in blood. Moreover, the number of monocytes in group #5 (or E: mice treated with CF3-7α,25OHC) was lower by as much as 66% and the total leukocyte count (lymphocytes and monocytes included) was also substantially lower (by 51%), though only in the group of mice injected with CF3-7α,25OHC. In our subsequent in vivo tests (short-term pharmacology) we confirmed the action of CF3-7α,25OHC. In that test, too, it reduced the count of white blood cells. CF3-7α,25OHC reduces the lymphocyte count as early as following the 4 mg/kg dose and the effect lasts for 24 hours following administration.

CD4+ cells = test: Cuprizone model: immunofluorescently tagged CD4+ cells in the central part of the corpus callosum; type: in vivo, mice; settings: after 14 days of treatment in the cuprizone model, group E
Excerpt: Measurement of the quantity of immunofluorescently-tagged CD4+ cells in the central part of the corpus callosum following 14 days of treatment in the cuprizone model (Fig 7). Morphology of mouse blood in the cuprizone model and the in vivo model testing short-term pharmacotherapy of oxysterol CF3-7α,25OHC (Fig 10).
A (Fig 7) control group: regular cuprizone-free chow for 9 weeks. Mice were euthanised after 9 weeks and tissue samples were taken for analysis. In these mice, myelin sheaths were not removed.
B (Fig 7) control group with cuprizone: chow containing cuprizone for 9 weeks. The mice were euthanised following 9 weeks and tissue samples were taken for analysis. In the mice fed with cuprizone-containing chow myelin sheaths were removed.
as §1
E (Fig 7) or #5 experimental group with oxysterol CF3-7α,25OHC - the mice were fed with chow containing cuprizone for 9 weeks, and then with regular chow without cuprizone for another 2 weeks. […]

[3] = after 14 days of treatment during remyelination in the cuprizone model

Structure (SMILES): C[C@H](CCCC(C)(C)O)[C@H]1CC[C@H]2[C@H]3[C@H](CC[C@]12C)[C@@]1(C)CC[C@H](O)CC1=C[C@]3(O)C(F)(F)F [CF3-7α,25OHC, cholestene-7β-trifluoromethyl,3β,7α,25-triol]
- lipoprotein density in the corpus callosum, higher by [1]: 16%
- myelin density / myelin regeneration in the corpus callosum [1]: increased
- myelin density / myelin regeneration in the corpus callosum ([1]; listed as CF3-7α25OHC): more efficient (or faster) myelin regeneration
- in vivo half life [2]: 12 h
- drop in eosinophils (white blood cells; [3]): 43%
- drop in monocytes (white blood cells; [3]): 66%
- drop in neutrophils (white blood cells; [3]): 14%
- drop in the total number of white blood cells (total leukocyte count) (white blood cells; after 14 days of treatment during remyelination in the cuprizone model, compared to vehicle group): 51%
- drop in lymphocytes (lymphocyte count in peripheral blood lower by) (white blood cells; after 14 days of treatment in the cuprizone model, CF3-7α,25OHC 20 mg/kg s.c., barbadin 0.3 mg/kg i.p., compared to vehicle group #3): 51% and 50%
- number of white blood cells (leukocytes, lymphocytes, monocytes) (white blood cells; cuprizone model, group #5 (E)): went down; also recorded: substantially reduced
- count of CD4+ cells in the corpus callosum (CD4+ cells): fewest; also recorded: lowest count
